# Source: US9566312B2, “Cyclic peptides and use as medicines” (priority 2012, dated 2017)
# Starred links: 1 amine or outer side, 2 acyl side, 3 side chain; linkers in the order of their positions; H or OH if unused. Non-standard residues stand in square brackets, D forms with d. Residues, ends and D or L forms follow the SMILES beside them. X44 = CC(C)N1CCN(C(=O)COC[C@@H](C)[C@@H](C(=O)[*:2])N(C)[*:1])CC1; X37 = C[C@H](CN1CCC(S(C)(=O)=O)CC1)[C@@H](C(=O)[*:2])N(C)[*:1]; X73 = CO[C@H]1CCN(CCOC[C@@H](C)[C@@H](C(=O)[*:2])N(C)[*:1])C1; X82 = C[C@H](COCCN1CCOC[C@@H]1C)[C@@H](C(=O)[*:2])N(C)[*:1]; X36 = C[C@H](COCCN(C)CC(F)(F)F)[C@@H](C(=O)[*:2])N(C)[*:1]; MeBmt = C/C=C/C[C@@H](C)[C@@H](O)[C@H](NC)C(=O)O; NMeL = CN[C@@H](CC(C)C)C(=O)O; NMeV = CN[C@H](C(=O)O)C(C)C; dNMeA = CN[C@H](C)C(=O)O; Abu = CC[C@H](N)C(=O)O
# What was measured:
# [1] = molecular target: organic anion transporting polypeptide 1B1 (OATP1B1) (Homo sapiens (Human), UniProt Q9Y6L6); experiment: OATP assay in CHO-OATP1B1 cells;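 also: inhibition of probe substrate uptake into the cells, ten minutes exposure, accumulated substrate read by fluorescence once cells were lysed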
# Procedure: In order to determine whether the compounds of the present invention interact with hepatic transporters, experiments were carried out that compared the concentration-dependent inhibition toward the organic anion transporting polypeptide 1B1 (OATP1B1) and the multidrug resistance associated protein 2 (MRP2).
# The cells were cultured in DMEM/F12 +10% FBS+2 mM Ala-Gln+1% Pen-Strep for a period of two days, and the media was changed one day post-seeding. Prior to the assay, media was aspirated and were washed −3× with HBSS+10 mM HEPES and the solution was equilibrated for 15 min in HBSS+10 mM HEPES. Solutions containing the inhibitor were prepared in HBSS+10 mM HEPES (up to 1% DMSO). […] After 10 min, the substrate or substrate/inhibitor solution was aspirated and the cells were washed 3× with HBSS+10 mM HEPES. The amount of the transported probe substrate was determined by fluorescent photometry after cell lysis, and the IC50 was derived from the concentration-response curve.
# cyclophilin A (CypA) = cyclophilin A (CypA) (Homo sapiens (Human), UniProt P62937); experiment: Inhibitor binding to cyclophilin proteins by SPR, CypA; set-up: unit not given here; conditions: 1:1 binding model
# CypF = CypF (Homo sapiens (Human), UniProt P30405); experiment: Inhibitor binding to cyclophilin proteins by SPR, CypF; conditions: 1:1 binding model
# Procedure: (§1) Method 1: Measuring Inhibitor Binding to Cyclophilin Proteins
# (§2) Binding of inhibitors to expressed cyclophilins was determined using surface plasmon resonance (SPR) experiments. Briefly, avi-tagged cyclophilin proteins with mono-biotinylation were immobilized onto a Biotin CAPture chip (GE Healthcare, cat. #28920234). SPR experiments were carried out on an upgraded Biacore T200 system using a running buffer containing the inhibitor, 10 mM HEPES, pH 7.4, 150 mM NaCl, 0.05% P20, and 3% DMSO. Single-cycle kinetics measurements were used to study the interactions between cyclophilin inhibitors and different cyclophlins. Accordingly, compound at various concentrations was injected to the flow cells with a contact time of 1 min each at a flow rate of 50 μL/min. The final dissociation phase lasts for 10 min following the sample injection. Data was analyzed using Biacore T200 Evaluation Software Version 1.0 and a 1:1 binding model was applied to fit the data to obtain kon, koff, and KD.
# cyclophilin B (CypB) = cyclophilin B (CypB) (Homo sapiens (Human), UniProt P23284); experiment: Inhibitor binding to cyclophilin proteins by SPR, CypB; set-up: unit not given here; conditions: 1:1 binding model
# Procedure: as §1, §2
# [2] = system: genotype 1b subgenomic HCV replicon in Huh7.5 cells; type: cell-based, hepatitis C virus; conditions: genotype 1b replicon, 72 h incubation; read-out: RPLN-1b IC50
# Procedure: Method 2: Measuring Inhibitory Effects in a HCV Replicon System
# Susceptibility to compounds was analyzed in Huh7.5 cells containing genotype 1a or 1b subgenomic HCV replicons co-expressing a luciferase reporter gene. The original replicons, pFK389lucubineo_3_3′_ET and pH/SG-Neo(L+I), were licensed from ReBlicon GmbH (Germany) and Apath LLC (Saint Louis, Mo.), respectively. The firefly reporter gen was replaced by renilla luciferase reporter gene using standard molecular biology techniques as follows.
# Generation of genotype 1b subgenomic replicon: The renilla […]-neomycin phosphotransferase cassette was amplified from pF9 cytomegalovirus (CMV) hRluc-Neo Flexi(R) (Promega) by PCR using Accuprime super mix II (Invitrogen) and a primer set of Ascl hRlucNeo Fwd and NotI hRluc Rev. These two primers have the following sequences and introduce restriction sites for subsequent cloning: Ascl hRlucNeo Fwd, 5 […] 3(Ascl site underlined) (SEQ. ID No. 1), and NotI hRluc Rev, 5[…] 3(NotI site underlined) (SEQ ID No. 2). The amplification product was subcloned into pCR2.1-TOPO (Invitrogen). The resulting plasmid was digested with Ascl and NotI, and the excised fragment (hRluc-Neo) was ligated with the Roche Quick Ligation Kit (Roche) into pFK1389lucubineo_3_3′_ET digested with the same enzymes.
# The assay medium for both, luciferase reporter HCV replicon and cytotoxicity assays contains phenol red-free DMEM and lacks G418. […] Luciferase activity of compound treated cells is measured relative to DMSO treated cells after 72 h incubation using Renilla-Glo™ Luciferase Assay (Promega). Cytotoxicity (CC50) is analyzed using Cell Titer-Glo™ (Promega).
# [3] = system: peripheral blood mononuclear cells (PBMC); experiment: Anti-proliferative or immunosuppressive activity, BrdU incorporation in PHA-stimulated PBMC; type: cell-based; conditions: PHA 3 μg/ml, 60 hour compound treatment; read-out: EMV PBMC IC50
# Procedure: Method 3: Measuring Anti-Proliferative or Immunosuppressive Activity
# The potential anti-proliferative activity of compounds on T-cells was analyzed based on the amount of bromodesoxy uridine (BrdU) incorporated into DNA of fresh peripheral blood mononuclear cells (PBMC) using the BrdU ELISA kit (Roche). The assay is performed in 96-well plate format with 30,000 PBMCs seeded per well in X-VIVO 15 medium (Lonza). T-cell proliferation was stimulated by addition of 3 μg/ml phytohemagglutinin (PHA) in PBMCs obtained from two donors.
# Chain of cyclophilin B (CypB) (P23284 34-216): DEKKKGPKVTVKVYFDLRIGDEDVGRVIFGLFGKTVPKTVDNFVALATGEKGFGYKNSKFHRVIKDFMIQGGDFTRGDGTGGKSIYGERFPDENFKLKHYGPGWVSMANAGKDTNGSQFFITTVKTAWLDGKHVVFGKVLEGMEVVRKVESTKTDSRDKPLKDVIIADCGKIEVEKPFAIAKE
# Chain of cyclophilin A (CypA) (P62937 whole entry): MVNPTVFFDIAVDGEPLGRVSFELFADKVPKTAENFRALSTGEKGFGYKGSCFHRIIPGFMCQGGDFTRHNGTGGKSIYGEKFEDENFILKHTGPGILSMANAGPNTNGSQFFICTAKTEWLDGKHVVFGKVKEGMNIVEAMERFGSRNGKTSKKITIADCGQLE
# Chain of CypF (P30405 30-207): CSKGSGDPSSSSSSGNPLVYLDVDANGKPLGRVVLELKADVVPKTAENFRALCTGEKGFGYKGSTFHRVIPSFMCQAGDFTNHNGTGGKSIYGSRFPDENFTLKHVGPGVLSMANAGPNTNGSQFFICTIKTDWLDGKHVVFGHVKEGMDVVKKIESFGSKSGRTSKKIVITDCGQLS
# Chain of organic anion transporting polypeptide 1B1 (OATP1B1) (Q9Y6L6 whole entry): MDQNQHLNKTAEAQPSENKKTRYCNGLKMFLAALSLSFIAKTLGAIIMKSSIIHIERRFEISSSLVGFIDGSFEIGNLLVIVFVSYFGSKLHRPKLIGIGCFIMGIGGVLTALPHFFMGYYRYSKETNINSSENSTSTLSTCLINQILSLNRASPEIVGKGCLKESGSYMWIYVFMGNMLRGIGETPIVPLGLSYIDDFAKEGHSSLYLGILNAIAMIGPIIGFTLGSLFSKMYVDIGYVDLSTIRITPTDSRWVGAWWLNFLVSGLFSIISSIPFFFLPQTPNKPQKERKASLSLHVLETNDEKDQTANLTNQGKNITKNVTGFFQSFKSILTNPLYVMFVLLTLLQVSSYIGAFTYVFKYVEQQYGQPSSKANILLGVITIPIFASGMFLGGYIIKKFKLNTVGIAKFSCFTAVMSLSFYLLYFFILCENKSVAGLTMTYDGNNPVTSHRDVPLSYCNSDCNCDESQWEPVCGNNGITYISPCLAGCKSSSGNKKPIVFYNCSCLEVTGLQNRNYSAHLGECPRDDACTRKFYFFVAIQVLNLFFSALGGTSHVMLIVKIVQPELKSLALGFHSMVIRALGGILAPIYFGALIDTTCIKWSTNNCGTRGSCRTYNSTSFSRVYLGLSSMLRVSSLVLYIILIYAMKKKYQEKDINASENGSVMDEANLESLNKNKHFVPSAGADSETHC
SMILES,IC50 [1] [nM],CypA Kd (cyclophilin A (CypA)),CypF Kd (CypF) [nM],CypB Kd (cyclophilin B (CypB)),IC50 [2] [nM],IC50 [3] [nM]
"C/C=C/C[C@@H](C)[C@@H](O)[C@H]1C(=O)N[C@@H](CC)C(=O)N(C)[C@H](C)C(=O)N(C)[C@@H]([C@H](C)CN2CCC(S(C)(=O)=O)CC2)C(=O)N[C@@H](C(C)C)C(=O)N(C)[C@@H](CC(C)C)C(=O)N[C@@H](C)C(=O)N[C@H](C)C(=O)N(C)[C@@H](CC(C)C)C(=O)N(C)[C@@H](CC(C)C)C(=O)N(C)[C@@H](C(C)C)C(=O)N1C [Compound 2.5.20, 3-[D-Ala]-4-[(2S,3R)-3-methyl-2-(methylamino)-4-(4-(methylsulfonyl)piperidin-1-yl)butanoyl]-cyclosporin] (cyclo(A[dA][NMeL][NMeL][NMeV][MeBmt][Abu][dNMeA][X37]V[NMeL]))",1800,3.7,1.6,1.2,109,29200
"C/C=C/C[C@@H](C)[C@@H](O)[C@H]1C(=O)N[C@@H](CC)C(=O)N(C)[C@H](C)C(=O)N(C)[C@@H]([C@H](C)COCCN2CCOC[C@@H]2C)C(=O)N[C@@H](C(C)C)C(=O)N(C)[C@@H](CC(C)C)C(=O)N[C@@H](C)C(=O)N[C@H](C)C(=O)N(C)[C@@H](CC(C)C)C(=O)N(C)[C@@H](CC(C)C)C(=O)N(C)[C@@H](C(C)C)C(=O)N1C [Compound 2.8.6, 3-[D-Ala]-4-[(2S,3S)-3-methyl-2-(methylamino)-4-(2-((S)-3-methylmorpholino)ethoxy)butanoyl]-cyclosporin] (cyclo(A[dA][NMeL][NMeL][NMeV][MeBmt][Abu][dNMeA][X82]V[NMeL]))",4800,1.3,0.8,0.9,13,–
"C/C=C/C[C@@H](C)[C@@H](O)[C@H]1C(=O)N[C@@H](CC)C(=O)N(C)[C@H](C)C(=O)N(C)[C@@H]([C@H](C)COCCN2CC[C@H](OC)C2)C(=O)N[C@@H](C(C)C)C(=O)N(C)[C@@H](CC(C)C)C(=O)N[C@@H](C)C(=O)N[C@H](C)C(=O)N(C)[C@@H](CC(C)C)C(=O)N(C)[C@@H](CC(C)C)C(=O)N(C)[C@@H](C(C)C)C(=O)N1C [Compound 2.8.7, 3-[D-Ala]-4-[(2S,3S)-4-(2-((S)-3-methoxypyrrolidin-1-yl)ethoxy)-3-methyl-2-(methylamino)butanoyl]-cyclosporin] (cyclo(A[dA][NMeL][NMeL][NMeV][MeBmt][Abu][dNMeA][X73]V[NMeL]))",5000,0.6,0.3,0.4,45,6800
"C/C=C/C[C@@H](C)[C@@H](O)[C@H]1C(=O)N[C@@H](CC)C(=O)N(C)[C@H](C)C(=O)N(C)[C@@H]([C@H](C)COCC(=O)N2CCN(C(C)C)CC2)C(=O)N[C@@H](C(C)C)C(=O)N(C)[C@@H](CC(C)C)C(=O)N[C@@H](C)C(=O)N[C@H](C)C(=O)N(C)[C@@H](CC(C)C)C(=O)N(C)[C@@H](CC(C)C)C(=O)N(C)[C@@H](C(C)C)C(=O)N1C [Compound 2.6.4, 3-[D-Ala]-4-[(2S,3S)-4-(2-(4-isopropylpiperazin-1-yl)-2-oxoethoxy)-3-methyl-2-(methylamino)butanoyl]-cyclosporin] (cyclo(A[dA][NMeL][NMeL][NMeV][MeBmt][Abu][dNMeA][X44]V[NMeL]))",8000,1.4,0.6,1.1,–,–
"C/C=C/C[C@@H](C)[C@@H](O)[C@H]1C(=O)N[C@@H](CC)C(=O)N(C)[C@H](C)C(=O)N(C)[C@@H]([C@H](C)COCCN(C)CC(F)(F)F)C(=O)N[C@@H](C(C)C)C(=O)N(C)[C@@H](CC(C)C)C(=O)N[C@@H](C)C(=O)N[C@H](C)C(=O)N(C)[C@@H](CC(C)C)C(=O)N(C)[C@@H](CC(C)C)C(=O)N(C)[C@@H](C(C)C)C(=O)N1C [Compound 2.8.3, 3-[D-Ala]-4-[(2S,3S)-3-methyl-4-(2-(methyl(2,2,2-trifluoroethyl)amino)ethoxy)-2-(methylamino)butanoyl]-cyclosporin] (cyclo(A[dA][NMeL][NMeL][NMeV][MeBmt][Abu][dNMeA][X36]V[NMeL]))",1900,4.4,4.1,3.3,–,–
